Data set [1] concerns MCF7. In words: Induction of cell cycle arrest in human MCF7 cells assessed as accumulation of cells at G1 phase at 3 uM incubated for 24 hrs by propidium iodide staining based flow cytometry analysis (reference value: 57.38%). Type of data set: functional.
A short description of data set [2]: AUC (0 to infinity) in Sprague-Dawley rat 10 mg/kg, po by LC/MS/MS analysis. The format is ADME, organism-based. On the set-up: time infinity, dose 10 mg/kg, route po. The conditions noted are these: in vivo.
Data set [3] concerns MCF7. In words: Downregulation cyclin D1 level in human MCF7 cells incubated for 24 hrs by Western blot analysis. As to conditions: dose 1.5-5 µM, DDE = dose-dependent effect. Type of data set: functional, cell-based. A general note: A western blot detects proteins with antibodies after separation by electrophoresis.
The test system of another data set is T47D. In words: Downregulation cyclin D1 level in human T47D cells incubated for 24 hrs by Western blot analysis. The conditions noted are these: dose 1-4 µM, DDE = dose-dependent effect. Type of data set: functional, cell-based.
For another data set, the target named is CDK7/Cyclin H/MNAT1 (Homo sapiens, UniProt P50613). In words: Inhibition of CDK7/cyclin H/MAT1 (unknown origin) in presence of ATP by time resolved-FRET assay. Type of data set: protein-complex assay.
Chain of CDK7/Cyclin H/MNAT1 (P51946 whole entry): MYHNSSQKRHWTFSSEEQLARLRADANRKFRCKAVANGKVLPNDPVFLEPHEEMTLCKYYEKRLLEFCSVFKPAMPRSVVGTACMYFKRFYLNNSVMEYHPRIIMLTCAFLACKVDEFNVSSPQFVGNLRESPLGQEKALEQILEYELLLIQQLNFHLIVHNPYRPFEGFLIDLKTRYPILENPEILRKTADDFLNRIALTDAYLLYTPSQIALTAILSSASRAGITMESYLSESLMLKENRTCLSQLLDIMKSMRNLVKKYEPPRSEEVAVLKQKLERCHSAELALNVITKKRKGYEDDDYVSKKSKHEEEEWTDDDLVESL
Chain of CDK7/Cyclin H/MNAT1 (P50613 whole entry): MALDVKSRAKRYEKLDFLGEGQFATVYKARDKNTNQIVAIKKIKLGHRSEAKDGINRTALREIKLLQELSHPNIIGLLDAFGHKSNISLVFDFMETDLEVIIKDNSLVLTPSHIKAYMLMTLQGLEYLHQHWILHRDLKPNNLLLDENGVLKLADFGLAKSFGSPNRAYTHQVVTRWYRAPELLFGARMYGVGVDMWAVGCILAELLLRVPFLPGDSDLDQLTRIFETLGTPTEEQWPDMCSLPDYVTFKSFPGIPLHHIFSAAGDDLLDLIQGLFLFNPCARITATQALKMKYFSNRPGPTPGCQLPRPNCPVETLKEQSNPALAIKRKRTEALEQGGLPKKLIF
Chain of CDK7/Cyclin H/MNAT1 (P51948 whole entry, further chain): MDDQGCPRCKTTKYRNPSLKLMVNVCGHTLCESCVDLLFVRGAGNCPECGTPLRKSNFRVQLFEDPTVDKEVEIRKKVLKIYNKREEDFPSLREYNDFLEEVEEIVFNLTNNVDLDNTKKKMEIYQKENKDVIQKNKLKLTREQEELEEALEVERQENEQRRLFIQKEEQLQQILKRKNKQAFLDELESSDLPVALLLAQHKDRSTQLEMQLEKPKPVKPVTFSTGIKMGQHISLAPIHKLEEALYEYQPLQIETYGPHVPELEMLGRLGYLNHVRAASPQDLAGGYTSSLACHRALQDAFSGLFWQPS
Data set [4] is described as follows: Acute toxicity in ICR mouse assessed as change in heart kidney at 1000 to 5000 mg/kg, po administered as single dose and measured every 2 days for 14 days. Type of data set: organism-based. As to conditions: in vivo, 336 h, dose 1000-5000 mg/kg, time 14 day.

With `CCN1CCc2cc(-c3nc(Nc4ccc(N5CCNCC5)cn4)ncc3F)ccc2C1=O`, the Activity with MCF7 [1] is 83.91%; in the data set on MCF7 [3], “Dde”; in the data set on T47D, “Dde”; in data set [4] it was “Non-Toxic”. The total exposure AUC(0-inf) (commonly the area under the concentration-time curve extrapolated to infinity) in data set [2] is 1610 ng·h/mL. Further, the IC50 – broadly, the point on the concentration scale where inhibition reaches its midpoint – at CDK7/Cyclin H/MNAT1 came out at 2.6 µM.

The values above are taken from ChEMBL document CHEMBL5096234, “Discovery, Optimization, and Evaluation of Selective CDK4/6 Inhibitors for the Treatment of Breast Cancer” (J Med Chem, 2022).
